In the supplement of paper PMC11451515:

Tested on: NOMO1
Assay: cell viability relative to DMSO control; higher = less cytotoxic
Conditions: 48 h
In short: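 Cells were incubated for 48 h at 37°C before CellTiter-Glo One luminescence was read. The cells were NOMO1 or SEM (500 cells/well) or P12-Ichikawa (1000 cells/well) leukemia cells, adapted for at least four passages in each medium and seeded in 1536-well plates (5 μl). Dosing used library compounds in DMSO applied by pin over 11 threefold points, 47 μM to 0.79 nM. Viability is the per-plate percentage of DMSO wells, with cell-free wells as background.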

[1] = HPLM + 10% dialyzed FBS, 0.000781 µM
[2] = HPLM + 10% dialyzed FBS, 0.00234 µM
[3] = HPLM + 10% dialyzed FBS, 0.00702 µM
[4] = HPLM + 10% dialyzed FBS, 0.0211 µM
[5] = HPLM + 10% dialyzed FBS, 0.0632 µM
[6] = HPLM + 10% dialyzed FBS, 0.19 µM
[7] = HPLM + 10% dialyzed FBS, 0.569 µM
[8] = HPLM + 10% dialyzed FBS, 1.71 µM
[9] = HPLM + 10% dialyzed FBS, 5.12 µM
[10] = HPLM + 10% dialyzed FBS, 15.4 µM
[11] = HPLM + 10% dialyzed FBS, 46.1 µM
[12] = RPMI 5 mM glucose + 10% FBS, 0.000781 µM
[13] = RPMI 5 mM glucose + 10% FBS, 0.00234 µM
[14] = RPMI 5 mM glucose + 10% FBS, 0.00702 µM
[15] = RPMI 5 mM glucose + 10% FBS, 0.0211 µM
[16] = RPMI 5 mM glucose + 10% FBS, 0.0632 µM
[17] = RPMI 5 mM glucose + 10% FBS, 0.19 µM
[18] = RPMI 5 mM glucose + 10% FBS, 0.569 µM
[19] = RPMI 5 mM glucose + 10% FBS, 1.71 µM
[20] = RPMI 5 mM glucose + 10% FBS, 5.12 µM
[21] = RPMI 5 mM glucose + 10% FBS, 15.4 µM
[22] = RPMI 5 mM glucose + 10% FBS, 46.1 µM
[23] = RPMI 5 mM glucose + 10% dialyzed FBS, 0.000781 µM
[24] = RPMI 5 mM glucose + 10% dialyzed FBS, 0.00234 µM
[25] = RPMI 5 mM glucose + 10% dialyzed FBS, 0.00702 µM
[26] = RPMI 5 mM glucose + 10% dialyzed FBS, 0.0211 µM
[27] = RPMI 5 mM glucose + 10% dialyzed FBS, 0.0632 µM
[28] = RPMI 5 mM glucose + 10% dialyzed FBS, 0.19 µM
[29] = RPMI 5 mM glucose + 10% dialyzed FBS, 0.569 µM
[30] = RPMI 5 mM glucose + 10% dialyzed FBS, 1.71 µM
[31] = RPMI 5 mM glucose + 10% dialyzed FBS, 5.12 µM
[32] = RPMI 5 mM glucose + 10% dialyzed FBS, 15.4 µM
[33] = RPMI 5 mM glucose + 10% dialyzed FBS, 46.1 µM

| Compound | cell viability [1] [%] | cell viability [2] [%] | cell viability [3] [%] | cell viability [4] [%] | cell viability [5] [%] | cell viability [6] [%] | cell viability [7] [%] | cell viability [8] [%] | cell viability [9] [%] | cell viability [10] [%] | cell viability [11] [%] | cell viability [12] [%] | cell viability [13] [%] | cell viability [14] [%] | cell viability [15] [%] | cell viability [16] [%] | cell viability [17] [%] | cell viability [18] [%] | cell viability [19] [%] | cell viability [20] [%] | cell viability [21] [%] | cell viability [22] [%] | cell viability [23] [%] | cell viability [24] [%] | cell viability [25] [%] | cell viability [26] [%] | cell viability [27] [%] | cell viability [28] [%] | cell viability [29] [%] | cell viability [30] [%] | cell viability [31] [%] | cell viability [32] [%] | cell viability [33] [%] |
| --- | --- | --- | --- | --- | --- | --- | --- | --- | --- | --- | --- | --- | --- | --- | --- | --- | --- | --- | --- | --- | --- | --- | --- | --- | --- | --- | --- | --- | --- | --- | --- | --- | --- |
| CC(C)(C)OC(=O)Nc1ccc(-c2cc(C(=O)NCCCCCCC(=O)NO)no2)cc1 | 88.5 | 89 | 84.4 | 89.8 | 98.3 | 104 | 104 | 99.4 | 68.7 | 13.7 | 4.88 | 86.7 | 80.1 | 81.1 | 84.3 | 85.3 | 88.6 | 99.4 | 80.8 | 67.1 | 11.8 | 4.55 | 86.3 | 82.8 | 89.2 | 88.2 | 99.3 | 92.1 | 101 | 72.9 | 73.8 | 13.1 | 4.05 |
| Clc1ccccc1C(c1ccccc1)(c1ccccc1)n1ccnc1 | 120 | 115 | 125 | 123 | 116 | 114 | 123 | 105 | 108 | 101 | 78.6 | 103 | 122 | 114 | 122 | 111 | 110 | 114 | 103 | 95 | 92.7 | 69.1 | 119 | 114 | 119 | 110 | 116 | 117 | 124 | 104 | 113 | 111 | 80.3 |
| COc1cc(OC)c(C(=O)CCCN2CCCC2)c(OC)c1 |  |  |  |  |  |  |  |  |  |  |  | 132 | 125 | 122 | 127 | 127 | 116 | 120 | 108 | 119 | 98.4 | 106 |  |  |  |  |  |  |  |  |  |  |  |
| NC(CO)C(=O)NNCc1ccc(O)c(O)c1O (stereo not given) | 96.1 | 104 | 106 | 93.5 | 107 | 107 | 91.6 | 88.1 | 90.6 | 89 | 77.2 | 85.6 | 101 | 96.3 | 95.9 | 94.4 | 94.1 | 89.4 | 85 | 84.3 | 83.7 | 82.9 | 89.4 | 102 | 107 | 90.8 | 98.8 | 102 | 91.9 | 90 | 96 | 92.7 | 82.6 |
| CCC(C1CCC(C)C(O1)C(C)C(O)C(C)C(=O)C(CC)C2OC\3(O[C@]4(CC[C@@](C)(O4)C5CC[C@@](O)(CC)C(C)O5)C(O)\C=C3)C(C)CC2C)C([O-])=O (stereo not given in full) | 111 | 121 | 101 | 91.2 | 119 | 109 | 117 | 68.6 | 38 | 27.3 | 26.4 | 90.5 | 34.1 | 99.9 | 90.6 | 114 | 110 | 97.1 | 67.6 | 19.7 | 16.6 | 15.3 | 96.9 | 78.6 | 132 | 153 | 119 | 75.1 | 102 | 36.2 | 15.2 | 13.5 | 11 |
| N=C(N)Nc1ccc(C(=O)Oc2ccc3cc(C(=N)N)ccc3c2)cc1 | 96.3 | 103 | 100 | 100 | 101 | 95.6 | 93.5 | 100 | 81.1 | 89.6 | 48 | 93.7 | 84.8 | 83.5 | 86.6 | 90.8 | 86 | 90.7 | 89.8 | 90.5 | 73.3 | 50.6 | 86 | 85.3 | 78.6 | 90.4 | 95.3 | 92.4 | 79.4 | 83.7 | 88.7 | 70.5 | 45.3 |
| Cc1ccc(/C=N/NC(=O)c2ccccc2Oc2ccccc2)o1 | 102 | 100 | 104 | 97.7 | 101 | 102 | 104 | 91.3 | 98 | 81.5 | 69.6 | 102 | 96.4 | 97.2 | 88.7 | 86.7 | 91.2 | 88 | 80.4 | 83.5 | 83.3 | 80.9 | 98.9 | 96.3 | 95.1 | 89.4 | 113 | 101 | 95.6 | 96.3 | 85.9 | 96.9 | 86.3 |
| N#C/C(=C1/Nc2ccccc2S1)c1ccnc(OCc2ccc(CN3CCOCC3)cc2)n1 | 104 | 120 | 97.1 | 127 | 122 | 122 | 107 | 84.9 | 86 | 25.2 | 27.5 | 104 | 109 | 105 | 117 | 113 | 115 | 109 | 101 | 103 | 13.4 | 13.7 | 112 | 105 | 96 | 120 | 109 | 114 | 111 | 99 | 86 | 18 | 14.6 |
| Cc1ccc(-c2cc(C(F)(F)F)nn2-c2ccc([S+](N)(=O)[O-])cc2)cc1 |  |  |  |  |  |  |  |  |  |  |  | 115 | 122 | 110 | 126 | 126 | 114 | 115 | 112 | 112 | 128 | 103 | 121 | 119 | 121 | 118 | 107 | 110 | 117 | 121 | 104 | 109 | 92.7 |
| CN1CCN(CCCN2c3ccccc3Sc3ccc(Cl)cc32)CC1.O=C(O)/C=C\C(=O)O.O=C(O)/C=C\C(=O)O | 112 | 123 | 112 | 111 | 124 | 110 | 106 | 47.9 | 42.8 | 29.9 | 32.1 | 97.8 | 106 | 112 | 107 | 109 | 101 | 108 | 81.9 | 58.3 | 24.2 | 28.4 | 94.7 | 104 | 127 | 106 | 117 | 115 | 116 | 68.9 | 73 | 28.3 | 31.9 |
| CN(C)CCc1c[nH]c2ccc(C[S+](=O)([O-])N3CCCC3)cc12 | 95.2 | 118 | 104 | 109 | 118 | 113 | 102 | 125 | 107 | 96.2 | 60.2 | 96.7 | 107 | 97.1 | 104 | 123 | 97.1 | 99.3 | 98.5 | 96.4 | 97.6 | 72.2 | 99.5 | 95.8 | 113 | 103 | 106 | 109 | 115 | 102 | 106 | 92 | 58.8 |
| Nc1nc(N)c(N=O)c(OCC2CCCCC2)n1 | 89.8 | 104 | 90.2 | 116 | 94.5 | 99 | 99.5 | 62.5 | 46.9 | 38.9 | 23.4 | 90.3 | 90.2 | 93 | 93.5 | 87.9 | 94 | 91.8 | 76.9 | 61.6 | 48 | 28.2 | 76.6 | 91.8 | 78.8 | 87.9 | 97.9 | 96.9 | 91.2 | 76.8 | 66.8 | 60.4 | 33.8 |
| Nc1nc(NCCNc2ncc(-n3ccnc3)c(-c3ccc(Cl)cc3Cl)n2)ccc1[N+](=O)[O-] |  |  |  |  |  |  |  |  |  |  |  | 105 | 124 | 126 | 128 | 127 | 141 | 144 | 157 | 141 | 151 | 165 | 92.9 | 128 | 119 | 136 | 155 | 160 | 139 | 147 | 168 | 147 | 150 |
| Cc1cccc2c1CC[C@H](CN1CCC(c3c(Cl)cccc3Cl)CC1)C[C@@H]2O | 99.8 | 115 | 116 | 126 | 133 | 154 | 150 | 136 | 116 | 97.9 | 83.9 |  |  |  |  |  |  |  |  |  |  |  | 103 | 124 | 130 | 148 | 129 | 145 | 143 | 103 | 82 | 70.2 | 61.5 |
| CC(C)(C)C1=CC(=C(NC(=O)C/2=C/NC3=C(C=CC=C3)C2=O)C=C1O)C(C)(C)C |  |  |  |  |  |  |  |  |  |  |  | 120 | 108 | 118 | 128 | 136 | 124 | 121 | 116 | 114 | 111 | 103 |  |  |  |  |  |  |  |  |  |  |  |
| C=CC(=O)Nc1ccc2ncnc(Nc3ccc(OCc4cccc(F)c4)c(Cl)c3)c2c1 | 82.4 | 93.3 | 99.9 | 96.7 | 105 | 99.4 | 98.1 | 72.4 | 22.2 | 17.1 | 12.6 | 92.6 | 91.8 | 114 | 115 | 107 | 95.8 | 101 | 93.3 | 13.6 | 14.7 | 9.53 | 92.9 | 85.7 | 93.5 | 91.3 | 104 | 92.6 | 93 | 94 | 21.4 | 18.3 | 11.8 |
| CCOC(=O)[C@@H](N)CCC(=O)N[C@@H](CSCc1ccccc1)C(=O)N[C@@H](C(=O)OCC)c1ccccc1 |  |  |  |  |  |  |  |  |  |  |  |  |  |  |  |  |  |  |  |  |  |  | 128 | 116 | 123 | 130 | 133 | 136 | 121 | 133 | 137 | 139 | 98.9 |
| COc1ccc(C2(C#N)CCC(C(=O)O)CC2)cc1OC1CCCC1 (stereo not given) | 91 | 109 | 95 | 116 | 120 | 123 | 113 | 113 | 111 | 102 | 108 | 82.4 | 91.8 | 84.9 | 87.5 | 94.1 | 96.8 | 96.3 | 85.7 | 101 | 89.6 | 90.6 | 99.5 | 105 | 98.3 | 102 | 98.2 | 95 | 107 | 101 | 101 | 100 | 105 |
